Converted amounts (≈) assume the structure as drawn.
What was measured:
[1] = test system: E. coli D21 and LPS outer core polysaccharide truncated mutant strains; assay: MIC ratio against LPS-truncated E. coli mutants; assay type: cell-based; conditions: oligosaccharide-truncated mutants vs wild type D21; increase seen against D21e9 lacking outer core polysaccharides
Excerpt: LPS is a complex glycosylated lipid molecule comprising of a hydrophobic lipid A and core oligosaccharides. The core oligosaccharides are structurally divided into an inner core (lipid A proximal) region and an outer core O-antigen region (Fig. 4a). To ascertain if the alterations in OM polysaccharides modify the barrier penetration and antimicrobial properties of the peptides, we determined the MIC of the peptides against 4 cell-wall defective mutants of E. coli (Fig. 4a). We report the MIC ratio (i.e., MICmut/MICwt) which is the ratio of MIC of peptides/antibiotics against oligosaccharides truncated mutant strains over MIC of wild type (D21) strains. For antibiotics that access intracellular targets through porin pathways or peptides that bind to the lipid A part of the LPS, the MIC ratio is independent of LPS truncation (Fig. 4b). However, antibiotics or peptides which interact with outer or inner core polysaccharides of the LPS are expected to show changes in the MIC ratio.
All the peptide congeners were purchased from M/s. Mimotopes Pty Ltd, Australia. The peptides were used as such and the homogeneity of peptides were confirmed by HPLC. Unless otherwise stated all the chemicals and the antibiotics tested were purchased from Sigma Aldrich (Singapore) Pte Ltd. The florescent probe, BODIPY TR cadaverine (BC) was purchased from Molecular Probes/ Invitrogen (CA, USA). E. coli LPS outer core polysaccharide truncated mutant strains were obtained from CGSG, The Coli Genetic Stock Centre, Yale University, […], USA. Relevant genotype of the strains are, D21 (rfa+); D21e19 (rfa-11) is a deficient mutant in carbohydrates close to the O-antigen part; D21e7 (rfa-1) is deficient in galactose as well as O-antigen; D21f1 (rfa-1, rfa21) lacks phosphate groups in the LPS has glucose and heptose intact; D21f2 (rfa-1, rfa-31) is deficient in heptose of the inner core[57][58].
(§1) MIC of each peptide was determined using the microdilution method in a 96 well microtitre plates (SPL Life Sciences Co., Ltd, Korea). Two-fold serial dilutions of each peptide in Mueller-Hinton Broth (MHB) was prepared from a 1 mg/ml stock solution of the peptide in the same broth, to obtain a final concentration in the range of 0.0976–50 μg/ml in each well. Bacterial suspensions (P. aeruginosa ATCC 27853, P. aeruginosa 4877, P. aeruginosa 23155, K. pneumoniae ATCC 10031 and K. pneumoniae 4299) were prepared by suspending the overnight cultured bacteria in saline and adjusting the inoculum to ~10^8 colony forming units (CFU) per ml. A further 150-fold dilution was then prepared in MHB to achieve a final cell density of 10^5–10^6 CFU/ml. In each well, 100 μl of inoculum was mixed with the equal volume of peptides at their 2× concentration. Positive and negative controls contained 200 μl of inoculum (without any peptide) and broth alone (no peptide/inoculum) respectively. Another negative control in which MHB containing 200 μl of peptide alone in its highest concentration tested (50 μg/ml) was also included to ensure that the optical density measured in the test wells was not due to turbidity of the peptides in solution. The 96 well polystyrene plates were then incubated at 37 °C for 24 h and the optical density at 600 nm (OD600) was measured every 30 min continuously using a TECAN microplate reader (TECAN Infinite 200, Austria). All the experiments were performed in two independent duplicates and the MIC was determined as the lowest peptide concentration in which no visible growth was observed.

P. aeruginosa DR4877/07 [2] = assay type: cell-based; conditions: for FICI of B2088-antibiotic combination: lowest FICI reported, two independent duplicates; for Fold decrease in the MIC of antibiotics at sub-lethal/sub-inhibitory concentrations of B2088: multidrug resistant P. aeruginosa 4877
Procedure, shortened: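 Checkerboard combinations of peptide and antibiotic, each 2-fold diluted up to 1× MIC in MHB, were tested against ~10^6 CFU/ml final inoculum. Plates were incubated 24 h at 37 °C, with growth read at OD600. FICI was the sum of the combination-to-alone MIC ratios for each agent, and the lowest FICI from duplicate experiments was reported.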

P. aeruginosa DR4877/07 [3] = assay: microbe, parasite or virus in culture; conditions: Pseudomonas aeruginosa, DR4877/07, 24 h, read-out: MIC of antibiotics
Procedure: as §1, with “Austria).” for “Austria). All the experiments were performed in two independent duplicates and the MIC was determined as the lowest peptide concentration in which no visible growth was observed.”

K. pneumoniae 31158 = assay: microbe, parasite or virus in culture; assay type: cell-based; conditions: Klebsiella pneumoniae, 31158; individual peptide/antibiotics; read-out: MIC against K. pneumoniae 31158
K. pneumonia 4299 [4] = assay: microbe, parasite or virus in culture; assay type: cell-based, K. pneumoniae; conditions: Klebsiella pneumoniae, 4299; individual peptide/antibiotics; read-out: MIC against K. pneumoniae 4299
Procedure, shortened: (§2)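 Peptides two-fold diluted in Mueller-Hinton Broth (0.0976–50 μg/ml final) against 10^5–10^6 CFU/ml inoculum, 37 °C for 24 h with OD600 monitored every 30 min. MIC = lowest concentration with no visible growth; two independent duplicates.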

K. pneumonia 07955 = assay: Checkerboard assay; assay type: cell-based, K. pneumoniae; conditions: for Fractional inhibitory concentration of B2088 used for FICI calculation: first number in parenthesis, in combination with the labelled antibiotic; for Fractional inhibitory concentration of antibiotic used for FICI calculation: second number in parenthesis, in combination with B2088
Procedure: (§3) The synergism between peptides with conventional antibiotics was evaluated using checkerboard assays. For a comparison polymyxin B (PMB) was also tested against each antibiotic. From their stock solutions, two-fold dilutions of each antibiotic and peptide to 1× MIC were prepared in MHB. 50 μl of each peptide concentration was added into the wells of a 96-well polystyrene plates (SPL Life Sciences Co. Ltd, Korea) in a horizontal orientation and the same volume of each antibiotic concentration were then added in a vertical orientation. Bacterial suspensions were prepared in MHB to yield final cell density of ~10^6 CFU/ml and 100 μl of bacterial suspension was mixed with each peptide-antibiotic combinations. This procedure was repeated for wells containing 200 μl of peptide alone and 200 μl of antibiotic alone in various concentrations. The positive and negative controls contained 200 μl of inoculum and MHB alone respectively. The plates were incubated at 37 °C for 24 hours and the optical density at 600 nm (OD600) was monitored as before. Fractional inhibitory concentration index (FICI) for all antibiotic- peptide combinations was calculated through the summation of (MIC of peptide in the combination/ MIC of peptide alone) and (MIC of antibiotics in combination/MIC of antibiotic alone). The experiments were performed in two independent duplicates and the combinations that gave the lowest FICI values was reported.

K. pneumonia 31158 = assay: Checkerboard assay; assay type: cell-based, K. pneumoniae; conditions: for Fractional inhibitory concentration of B2088 used for FICI calculation: first number in parenthesis, in combination with the labelled antibiotic; for Fractional inhibitory concentration of antibiotic used for FICI calculation: second number in parenthesis, in combination with B2088
Procedure: as §3

K. pneumonia 4299 [5] = assay: Checkerboard assay; assay type: cell-based, K. pneumoniae; conditions: for Fractional inhibitory concentration of B2088 used for FICI calculation: first number in parenthesis, in combination with the labelled antibiotic; for Fractional inhibitory concentration of antibiotic used for FICI calculation: second number in parenthesis, in combination with B2088
Procedure: as §3

K. pneumoniae 07955 = assay: microbe, parasite or virus in culture; assay type: cell-based; conditions: Klebsiella pneumoniae, 07955; individual peptide/antibiotics; read-out: MIC against K. pneumoniae 07955
P. aeruginosa ATCC 9027 [6] = assay: MIC, microdilution; assay type: cell-based
P. aeruginosa ATCC 9027 [7] = assay: Checkerboard assay; assay type: cell-based
Procedure: as §3

P. aeruginosa ATCC 27853 = assay: microbe, parasite or virus in culture; assay type: cell-based; conditions: Pseudomonas aeruginosa, ATCC27853; antibiotic alone; read-out: MIC of gentamicin against this strain
Procedure, shortened: as §2

[8] = MIC of B2088 6.25 μg/ml, MHB, ~10^6 CFU/ml, 37 °C, 24 h

SMILES | MIC ratio (MICmut/MICwt) [1] | MIC of antibiotics in the presence of ¼× sub-MIC of B2088 (P. aeruginosa DR4877/07 [2]; [8]) [µg/mL] | MIC of antibiotics in the presence of ½× sub-MIC of B2088 (P. aeruginosa DR4877/07 [2]; [8]) [µg/mL] | FICI of B2088-antibiotic combination (P. aeruginosa DR4877/07 [2]) | MIC (P. aeruginosa DR4877/07 [3]) [µg/mL] | MIC (K. pneumoniae 31158) [µg/mL] | MIC (K. pneumonia 4299 [4]) [µg/mL] | Fractional Inhibitory Concentration Index of B2088 with the antibiotic (K. pneumonia 07955) | Fractional inhibitory concentration of B2088 used for FICI calculation (K. pneumonia 07955) | Fractional inhibitory concentration of antibiotic used for FICI calculation (K. pneumonia 07955) | Fractional Inhibitory Concentration Index of B2088 with the antibiotic (K. pneumonia 31158) | Fractional inhibitory concentration of B2088 used for FICI calculation (K. pneumonia 31158) | Fractional inhibitory concentration of antibiotic used for FICI calculation (K. pneumonia 31158) | Fractional Inhibitory Concentration Index of B2088 with the antibiotic (K. pneumonia 4299 [5]) | Fractional inhibitory concentration of B2088 used for FICI calculation (K. pneumonia 4299 [5]) | Fractional inhibitory concentration of antibiotic used for FICI calculation (K. pneumonia 4299 [5]) | Fold decrease in the MIC of antibiotics at sub-lethal/sub-inhibitory concentrations of B2088 (P. aeruginosa DR4877/07 [2]) [fold] | MIC (K. pneumoniae 07955) [µg/mL] | also measured
CC1(C)S[C@@H]2[C@H](NC(=O)C(C(=O)O)c3ccccc3)C(=O)N2[C@H]1C(=O)O (stereo partly drawn) [Carbenicillin, reference compound] | did not show any change | 800 | 200 | 0.63 | 1600 | – | – | – | – | – | – | – | – | – | – | – | – | – | –
O=C(N[C@H](CO)[C@H](O)c1ccc([N+](=O)[O-])cc1)C(Cl)Cl [Chloramphenicol] | marked increase | 50 | 25 | 0.5 | 200 | 3.12 (≈ 9.67 µM) | 12.5 (≈ 38.7 µM) | 0.38 | 0.13 | 0.25 | 0.63 | 0.5 | 0.13 | 0.38 | 0.13 | 0.25 | 4 | 50 (≈ 155 µM) | FICI of polymyxin B-antibiotic combination (P. aeruginosa DR4877/07 [2]): 0.63; MIC of antibiotics in the presence of ⅛× sub-MIC of B2088 (P. aeruginosa DR4877/07 [2]; [8]): 100 µg/mL
CNC(C)C1CCC(N)C(OC2C(N)CC(N)C(OC3OCC(C)(O)C(NC)C3O)C2O)O1 (stereo not drawn) [Gentamicin] | marked increase | – | – | – | – | 0.05 (≈ 0.105 µM) | 0.39 (≈ 0.817 µM) | 0.75 | 0.25 | 0.5 | 0.31 | 0.25 | 0.06 | 0.37 | 0.125 | 0.25 | 4 | 100 (≈ 209 µM) | MIC of antibiotics (Table S1) (P. aeruginosa ATCC 9027 [6]; Gentamycin alone, ATCC 9027): 0.39 µg/mL; MIC of antibiotics (P. aeruginosa ATCC 9027 [6]; gentamicin alone, ATCC 9027 used because DR4877/07 too resistant): 0.39 µg/mL; FICI of polymyxin B-antibiotic combination (P. aeruginosa ATCC 9027 [7]; Gentamycin): 1.0; MIC of antibiotics in the presence of ½ × sub-MIC of Polymyxin B (P. aeruginosa ATCC 9027 [7]; Gentamycin): 0.195 µg/mL; MIC of antibiotics in the presence of ¼× sub-MIC of B2088 (P. aeruginosa ATCC 9027 [7]; gentamicin): 0.098 µg/mL; MIC of antibiotics in the presence of ½× sub-MIC of B2088 (P. aeruginosa ATCC 9027 [7]; gentamicin): 0.024 µg/mL; MIC of antibiotics in the presence of ⅛× sub-MIC of B2088 (P. aeruginosa ATCC 9027 [7]; gentamicin): 0.195 µg/mL; FICI of B2088-antibiotic combination (P. aeruginosa ATCC 9027 [7]; gentamicin, lowest FICI reported): 0.5; MIC (P. aeruginosa ATCC 27853): 0.04 µg/mL
